Experimental data reported in the supplement of paper PMC4862054.

These compounds were tested on CAL-148 (assay: drug sensitivity score (DSS), CellTiter-Glo (DSS (AUC-based score)); higher = stronger drug effect (viability inhibition or cytotoxicity); extreme values may be limits of the assay). Settings: incubation time: 72 h.
How it was run: (§1)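 Breast cancer cells were seeded into 384-well plates containing compound at 5 concentrations in 10-fold steps over a compound-specific 10,000-fold range and incubated 72 h. After CellTox Green and CellTiter-Glo readings, each plate was normalised to 0.1 % DMSO and a positive kill control. The drug sensitivity score rests on the area under the fitted dose-response curve.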

How did the drug sensitivity score turn out when `Cc1ccc([N+](=O)[O-])cc1S(=O)(=O)N(C)/N=C/c1cnc2ccc(Br)cn12` [PIK-75] was run?
Its drug sensitivity score is 19.

`CC(=O)c1c(C)c2cnc(Nc3ccc(N4CCNCC4)cn3)nc2n(C2CCCC2)c1=O` [Palbociclib] was tested. Which drug sensitivity score did it give?
Its drug sensitivity score is 0.

How did the drug sensitivity score turn out when `CC[C@@H]1C(=O)OC[C@@H]1Cc1cncn1C` [Pilocarpine] was run?
Its drug sensitivity score is 0.

`COc1cc(F)c(F)c(Nc2ccc(I)cc2F)c1NS(=O)(=O)C1(C[C@H](O)CO)CC1` [Refametinib] was tested. Which drug sensitivity score did it give?
The drug sensitivity score was 2.69.

With `CC(C)(C)c1cnc(CSc2cnc(NC(=O)C3CCNCC3)s2)o1` [SNS-032] as the compound, how does the drug sensitivity score read?
The drug sensitivity score was 10.3.

How did the drug sensitivity score turn out when `Cn1cnc2c(F)c(Nc3ccc(Br)cc3Cl)c(C(=O)NOCCO)cc21` [Selumetinib] was run?
The drug sensitivity score was 0.

How did the drug sensitivity score turn out when `Nc1nc2[nH]cnc2c(=S)[nH]1` [Thioguanine] was run?
Its drug sensitivity score is 1.29.

Each compound was assayed on HCC1937 in the same assay as above. Settings: incubation time: 72 h.
How it was run: as §1

With `Cc1ccc([N+](=O)[O-])cc1S(=O)(=O)N(C)/N=C/c1cnc2ccc(Br)cn12` [PIK-75] as the compound, how does the drug sensitivity score read?
Its drug sensitivity score is 24.

How did the drug sensitivity score turn out when `CC(=O)c1c(C)c2cnc(Nc3ccc(N4CCNCC4)cn3)nc2n(C2CCCC2)c1=O` [Palbociclib] was run?
Its drug sensitivity score is 0.

With `CC[C@@H]1C(=O)OC[C@@H]1Cc1cncn1C` [Pilocarpine] as the compound, how does the drug sensitivity score read?
Its drug sensitivity score is 0.

With `COc1cc(F)c(F)c(Nc2ccc(I)cc2F)c1NS(=O)(=O)C1(C[C@H](O)CO)CC1` [Refametinib] as the compound, how does the drug sensitivity score read?
Its drug sensitivity score is 4.08.

For `CC(C)(C)c1cnc(CSc2cnc(NC(=O)C3CCNCC3)s2)o1` [SNS-032], which drug sensitivity score is on record?
Its drug sensitivity score is 17.2.

How did the drug sensitivity score turn out when `Cn1cnc2c(F)c(Nc3ccc(Br)cc3Cl)c(C(=O)NOCCO)cc21` [Selumetinib] was run?
The drug sensitivity score was 0.

For `Nc1nc2[nH]cnc2c(=S)[nH]1` [Thioguanine], which drug sensitivity score is on record?
Its drug sensitivity score is 8.45.

These compounds were tested on BT-474 in the same assay as above. Settings: incubation time: 72 h.
How it was run: as §1

Which drug sensitivity score does the source give for `Cc1ccc([N+](=O)[O-])cc1S(=O)(=O)N(C)/N=C/c1cnc2ccc(Br)cn12` [PIK-75] here?
Its drug sensitivity score is 28.5.

How did the drug sensitivity score turn out when `CC(=O)c1c(C)c2cnc(Nc3ccc(N4CCNCC4)cn3)nc2n(C2CCCC2)c1=O` [Palbociclib] was run?
The drug sensitivity score was 4.46.

How did the drug sensitivity score turn out when `CC[C@@H]1C(=O)OC[C@@H]1Cc1cncn1C` [Pilocarpine] was run?
Its drug sensitivity score is 0.

Which drug sensitivity score does the source give for `COc1cc(F)c(F)c(Nc2ccc(I)cc2F)c1NS(=O)(=O)C1(C[C@H](O)CO)CC1` [Refametinib] here?
The drug sensitivity score was 8.51.

How did the drug sensitivity score turn out when `CC(C)(C)c1cnc(CSc2cnc(NC(=O)C3CCNCC3)s2)o1` [SNS-032] was run?
The drug sensitivity score was 17.8.

`Cn1cnc2c(F)c(Nc3ccc(Br)cc3Cl)c(C(=O)NOCCO)cc21` [Selumetinib] was tested. Which drug sensitivity score did it give?
Its drug sensitivity score is 7.93.

How did the drug sensitivity score turn out when `Nc1nc2[nH]cnc2c(=S)[nH]1` [Thioguanine] was run?
The drug sensitivity score was 12.

Each compound was assayed on MDA-MB-231 in the same assay as above. Settings: incubation time: 72 h.
How it was run: as §1

Which drug sensitivity score does the source give for `Cc1ccc([N+](=O)[O-])cc1S(=O)(=O)N(C)/N=C/c1cnc2ccc(Br)cn12` [PIK-75] here?
Its drug sensitivity score is 30.5.

How did the drug sensitivity score turn out when `CC(=O)c1c(C)c2cnc(Nc3ccc(N4CCNCC4)cn3)nc2n(C2CCCC2)c1=O` [Palbociclib] was run?
Its drug sensitivity score is 0.

With `CC[C@@H]1C(=O)OC[C@@H]1Cc1cncn1C` [Pilocarpine] as the compound, how does the drug sensitivity score read?
The drug sensitivity score was 0.

Which drug sensitivity score does the source give for `COc1cc(F)c(F)c(Nc2ccc(I)cc2F)c1NS(=O)(=O)C1(C[C@H](O)CO)CC1` [Refametinib] here?
The drug sensitivity score was 9.15.

For `CC(C)(C)c1cnc(CSc2cnc(NC(=O)C3CCNCC3)s2)o1` [SNS-032], which drug sensitivity score is on record?
The drug sensitivity score was 25.3.

With `Cn1cnc2c(F)c(Nc3ccc(Br)cc3Cl)c(C(=O)NOCCO)cc21` [Selumetinib] as the compound, how does the drug sensitivity score read?
Its drug sensitivity score is 5.56.

Which drug sensitivity score does the source give for `Nc1nc2[nH]cnc2c(=S)[nH]1` [Thioguanine] here?
Its drug sensitivity score is 10.2.

Each compound was assayed on CAL-120 in the same assay as above. Settings: incubation time: 72 h.
How it was run: as §1

For `Cc1ccc([N+](=O)[O-])cc1S(=O)(=O)N(C)/N=C/c1cnc2ccc(Br)cn12` [PIK-75], which drug sensitivity score is on record?
Its drug sensitivity score is 22.4.

How did the drug sensitivity score turn out when `CC(=O)c1c(C)c2cnc(Nc3ccc(N4CCNCC4)cn3)nc2n(C2CCCC2)c1=O` [Palbociclib] was run?
Its drug sensitivity score is 3.04.

For `CC[C@@H]1C(=O)OC[C@@H]1Cc1cncn1C` [Pilocarpine], which drug sensitivity score is on record?
Its drug sensitivity score is 0.

`COc1cc(F)c(F)c(Nc2ccc(I)cc2F)c1NS(=O)(=O)C1(C[C@H](O)CO)CC1` [Refametinib] was tested. Which drug sensitivity score did it give?
Its drug sensitivity score is 7.28.

`CC(C)(C)c1cnc(CSc2cnc(NC(=O)C3CCNCC3)s2)o1` [SNS-032] was tested. Which drug sensitivity score did it give?
The drug sensitivity score was 14.8.

`Cn1cnc2c(F)c(Nc3ccc(Br)cc3Cl)c(C(=O)NOCCO)cc21` [Selumetinib] was tested. Which drug sensitivity score did it give?
Its drug sensitivity score is 3.

With `Nc1nc2[nH]cnc2c(=S)[nH]1` [Thioguanine] as the compound, how does the drug sensitivity score read?
The drug sensitivity score was 6.5.

What follows are compounds tested on SK-BR-3 in the same assay as above. Settings: incubation time: 72 h.
How it was run: as §1

Which drug sensitivity score does the source give for `Cc1ccc([N+](=O)[O-])cc1S(=O)(=O)N(C)/N=C/c1cnc2ccc(Br)cn12` [PIK-75] here?
The drug sensitivity score was 30.4.

How did the drug sensitivity score turn out when `CC(=O)c1c(C)c2cnc(Nc3ccc(N4CCNCC4)cn3)nc2n(C2CCCC2)c1=O` [Palbociclib] was run?
The drug sensitivity score was 5.42.

For `CC[C@@H]1C(=O)OC[C@@H]1Cc1cncn1C` [Pilocarpine], which drug sensitivity score is on record?
Its drug sensitivity score is 0.

How did the drug sensitivity score turn out when `COc1cc(F)c(F)c(Nc2ccc(I)cc2F)c1NS(=O)(=O)C1(C[C@H](O)CO)CC1` [Refametinib] was run?
Its drug sensitivity score is 0.

How did the drug sensitivity score turn out when `CC(C)(C)c1cnc(CSc2cnc(NC(=O)C3CCNCC3)s2)o1` [SNS-032] was run?
The drug sensitivity score was 25.6.

`Cn1cnc2c(F)c(Nc3ccc(Br)cc3Cl)c(C(=O)NOCCO)cc21` [Selumetinib] was tested. Which drug sensitivity score did it give?
The drug sensitivity score was 0.

How did the drug sensitivity score turn out when `Nc1nc2[nH]cnc2c(=S)[nH]1` [Thioguanine] was run?
Its drug sensitivity score is 0.

These compounds were tested on MDA-MB-453 in the same assay as above. Settings: incubation time: 72 h.
How it was run: as §1

How did the drug sensitivity score turn out when `Cc1ccc([N+](=O)[O-])cc1S(=O)(=O)N(C)/N=C/c1cnc2ccc(Br)cn12` [PIK-75] was run?
Its drug sensitivity score is 23.

For `CC(=O)c1c(C)c2cnc(Nc3ccc(N4CCNCC4)cn3)nc2n(C2CCCC2)c1=O` [Palbociclib], which drug sensitivity score is on record?
Its drug sensitivity score is 0.

For `CC[C@@H]1C(=O)OC[C@@H]1Cc1cncn1C` [Pilocarpine], which drug sensitivity score is on record?
The drug sensitivity score was 0.

For `COc1cc(F)c(F)c(Nc2ccc(I)cc2F)c1NS(=O)(=O)C1(C[C@H](O)CO)CC1` [Refametinib], which drug sensitivity score is on record?
Its drug sensitivity score is 0.

How did the drug sensitivity score turn out when `CC(C)(C)c1cnc(CSc2cnc(NC(=O)C3CCNCC3)s2)o1` [SNS-032] was run?
The drug sensitivity score was 17.7.

For `Cn1cnc2c(F)c(Nc3ccc(Br)cc3Cl)c(C(=O)NOCCO)cc21` [Selumetinib], which drug sensitivity score is on record?
The drug sensitivity score was 0.

For `Nc1nc2[nH]cnc2c(=S)[nH]1` [Thioguanine], which drug sensitivity score is on record?
Its drug sensitivity score is 1.4.

What follows are compounds tested on MFM-223 in the same assay as above. Settings: incubation time: 72 h.
How it was run: as §1

`Cc1ccc([N+](=O)[O-])cc1S(=O)(=O)N(C)/N=C/c1cnc2ccc(Br)cn12` [PIK-75] was tested. Which drug sensitivity score did it give?
The drug sensitivity score was 26.

For `CC(=O)c1c(C)c2cnc(Nc3ccc(N4CCNCC4)cn3)nc2n(C2CCCC2)c1=O` [Palbociclib], which drug sensitivity score is on record?
Its drug sensitivity score is 5.89.

With `CC[C@@H]1C(=O)OC[C@@H]1Cc1cncn1C` [Pilocarpine] as the compound, how does the drug sensitivity score read?
Its drug sensitivity score is 0.

For `COc1cc(F)c(F)c(Nc2ccc(I)cc2F)c1NS(=O)(=O)C1(C[C@H](O)CO)CC1` [Refametinib], which drug sensitivity score is on record?
The drug sensitivity score was 5.74.

How did the drug sensitivity score turn out when `CC(C)(C)c1cnc(CSc2cnc(NC(=O)C3CCNCC3)s2)o1` [SNS-032] was run?
The drug sensitivity score was 17.1.

How did the drug sensitivity score turn out when `Cn1cnc2c(F)c(Nc3ccc(Br)cc3Cl)c(C(=O)NOCCO)cc21` [Selumetinib] was run?
The drug sensitivity score was 0.

How did the drug sensitivity score turn out when `Nc1nc2[nH]cnc2c(=S)[nH]1` [Thioguanine] was run?
The drug sensitivity score was 0.

These compounds were tested on CAL-51 in the same assay as above. Settings: incubation time: 72 h.
How it was run: as §1

Which drug sensitivity score does the source give for `Cc1ccc([N+](=O)[O-])cc1S(=O)(=O)N(C)/N=C/c1cnc2ccc(Br)cn12` [PIK-75] here?
The drug sensitivity score was 30.

`CC(=O)c1c(C)c2cnc(Nc3ccc(N4CCNCC4)cn3)nc2n(C2CCCC2)c1=O` [Palbociclib] was tested. Which drug sensitivity score did it give?
Its drug sensitivity score is 0.79.

Which drug sensitivity score does the source give for `CC[C@@H]1C(=O)OC[C@@H]1Cc1cncn1C` [Pilocarpine] here?
The drug sensitivity score was 0.

`COc1cc(F)c(F)c(Nc2ccc(I)cc2F)c1NS(=O)(=O)C1(C[C@H](O)CO)CC1` [Refametinib] was tested. Which drug sensitivity score did it give?
The drug sensitivity score was 0.

Which drug sensitivity score does the source give for `CC(C)(C)c1cnc(CSc2cnc(NC(=O)C3CCNCC3)s2)o1` [SNS-032] here?
Its drug sensitivity score is 28.6.

Which drug sensitivity score does the source give for `Cn1cnc2c(F)c(Nc3ccc(Br)cc3Cl)c(C(=O)NOCCO)cc21` [Selumetinib] here?
Its drug sensitivity score is 0.

For `Nc1nc2[nH]cnc2c(=S)[nH]1` [Thioguanine], which drug sensitivity score is on record?
Its drug sensitivity score is 5.29.

The compounds below were run on MDA-MB-468 in the same assay as above. Settings: incubation time: 72 h.
How it was run: as §1

`Cc1ccc([N+](=O)[O-])cc1S(=O)(=O)N(C)/N=C/c1cnc2ccc(Br)cn12` [PIK-75] was tested. Which drug sensitivity score did it give?
Its drug sensitivity score is 30.2.

How did the drug sensitivity score turn out when `CC(=O)c1c(C)c2cnc(Nc3ccc(N4CCNCC4)cn3)nc2n(C2CCCC2)c1=O` [Palbociclib] was run?
Its drug sensitivity score is 4.56.

How did the drug sensitivity score turn out when `CC[C@@H]1C(=O)OC[C@@H]1Cc1cncn1C` [Pilocarpine] was run?
Its drug sensitivity score is 0.

For `COc1cc(F)c(F)c(Nc2ccc(I)cc2F)c1NS(=O)(=O)C1(C[C@H](O)CO)CC1` [Refametinib], which drug sensitivity score is on record?
Its drug sensitivity score is 7.13.

For `CC(C)(C)c1cnc(CSc2cnc(NC(=O)C3CCNCC3)s2)o1` [SNS-032], which drug sensitivity score is on record?
Its drug sensitivity score is 28.1.

How did the drug sensitivity score turn out when `Cn1cnc2c(F)c(Nc3ccc(Br)cc3Cl)c(C(=O)NOCCO)cc21` [Selumetinib] was run?
The drug sensitivity score was 2.35.

`Nc1nc2[nH]cnc2c(=S)[nH]1` [Thioguanine] was tested. Which drug sensitivity score did it give?
Its drug sensitivity score is 1.72.
